Test results published in patent US8592408B2, “Fused aminodihydrothiazine derivatives” (Eisai R&D Management Co., Ltd., priority 2011, dated 2013).
Like-named read-outs stand apart in the source and are kept apart here. Each block holds one molecule with its values, some of them ahead of it.

Experiments:
[1] = system: Salmonella typhimurium tester strains TA98, TA100, TA1535 and TA1537 and Escherichia coli tester strain WP2 uv; assay: Ames test; assay type: cell-based; conditions: absence and presence of rat liver S9, up to highest dose tested 5000 ug/plate
Experimental: The title compound was subjected to an Ames test (Salmonella typhimurium tester strains TA98, TA100, TA1535 and TA1537 and Escherichia coli tester strain WP2 uv. Mutation Research 1975, 31, 347; Mutation Research 1976, 38, 3; Proc. Nat. Acad. Sci. USA 1976, 73, 950; Proc. Nat. Acad. Sci. USA 1975, 72, 5135) in the absence and presence of rat liver S9. The compound was negative up to the highest dose/concentration tested (5000 ug/plate).

[2] = Brain tissue binding (BTB), rapid equilibrium dialysis; assay type: in vitro ADME; conditions: rat brain homogenate, RED 6 h 37° C.
Experimental: (§1) Method For Determination of Plasma Protein Binding (PPB) and Brain Tissue Binding (BTB)
(§2) On the morning of dialysis, control male Sprague Dawley rat plasma and brain, previously stored at −80° C. were thawed at room temperature. Plasma was checked for pH and if necessary adjusted to 7.4 with 1M HCl. Plasma was then centrifuged (2000 g for 10 min) and the brains diluted with 2 mL of Phosphate Buffered Saline (pH 7.4) per gram of tissue and homogenised using a mechanical homogeniser.
(§3) The Rapid Equilibrium Dialysis (RED) plate (Thermo Scientific) was prepared in accordance with the manufacturers guidelines i.e. the base plate was soaked in 20% (v/v) ethanol for 10 min and then rinsed twice with deionised water before being allowed to dry. […] The plate was then covered with an adhesive and incubated in air at 37° C. for 6 h with 130 rpm agitation.
(§4) Following the 6 h incubation, the seal was removed and an aliquot (50 μL) taken from the PBS chambers and dispensed into Micronics tubes. […]
(§5) Samples were vortex mixed and an aliquot (300 μL) of acetonitrile containing 0.1% formic acid and 100 ng/mL of an appropriate internal standard added. Samples were then mixed and centrifuged (2000 g for 15 min) and an aliquot of the supernatant (100 μL) removed into a 96-deep well plate and diluted with an equal volume of water ready for analysis by LC-MS/MS.

[3] = target: T1, P-glycoprotein (MDR1-MDCK cells) (Homo sapiens, UniProt P08183); assay: MDR1-MDCK permeability (bi-directional) Pgp efflux assay; assay type: in vitro ADME; conditions: MDR1-MDCK, pH 7.4/pH 7.4, 10 μM, 60 min; ER=Papp(B-A)/Papp(A-B)
T1 construct: assay run at Cyprotex Discovery Ltd; host or cells: MDCK (canine kidney epithelial) cells stably transfected with MDR1
T1 sequence (P08183 whole entry): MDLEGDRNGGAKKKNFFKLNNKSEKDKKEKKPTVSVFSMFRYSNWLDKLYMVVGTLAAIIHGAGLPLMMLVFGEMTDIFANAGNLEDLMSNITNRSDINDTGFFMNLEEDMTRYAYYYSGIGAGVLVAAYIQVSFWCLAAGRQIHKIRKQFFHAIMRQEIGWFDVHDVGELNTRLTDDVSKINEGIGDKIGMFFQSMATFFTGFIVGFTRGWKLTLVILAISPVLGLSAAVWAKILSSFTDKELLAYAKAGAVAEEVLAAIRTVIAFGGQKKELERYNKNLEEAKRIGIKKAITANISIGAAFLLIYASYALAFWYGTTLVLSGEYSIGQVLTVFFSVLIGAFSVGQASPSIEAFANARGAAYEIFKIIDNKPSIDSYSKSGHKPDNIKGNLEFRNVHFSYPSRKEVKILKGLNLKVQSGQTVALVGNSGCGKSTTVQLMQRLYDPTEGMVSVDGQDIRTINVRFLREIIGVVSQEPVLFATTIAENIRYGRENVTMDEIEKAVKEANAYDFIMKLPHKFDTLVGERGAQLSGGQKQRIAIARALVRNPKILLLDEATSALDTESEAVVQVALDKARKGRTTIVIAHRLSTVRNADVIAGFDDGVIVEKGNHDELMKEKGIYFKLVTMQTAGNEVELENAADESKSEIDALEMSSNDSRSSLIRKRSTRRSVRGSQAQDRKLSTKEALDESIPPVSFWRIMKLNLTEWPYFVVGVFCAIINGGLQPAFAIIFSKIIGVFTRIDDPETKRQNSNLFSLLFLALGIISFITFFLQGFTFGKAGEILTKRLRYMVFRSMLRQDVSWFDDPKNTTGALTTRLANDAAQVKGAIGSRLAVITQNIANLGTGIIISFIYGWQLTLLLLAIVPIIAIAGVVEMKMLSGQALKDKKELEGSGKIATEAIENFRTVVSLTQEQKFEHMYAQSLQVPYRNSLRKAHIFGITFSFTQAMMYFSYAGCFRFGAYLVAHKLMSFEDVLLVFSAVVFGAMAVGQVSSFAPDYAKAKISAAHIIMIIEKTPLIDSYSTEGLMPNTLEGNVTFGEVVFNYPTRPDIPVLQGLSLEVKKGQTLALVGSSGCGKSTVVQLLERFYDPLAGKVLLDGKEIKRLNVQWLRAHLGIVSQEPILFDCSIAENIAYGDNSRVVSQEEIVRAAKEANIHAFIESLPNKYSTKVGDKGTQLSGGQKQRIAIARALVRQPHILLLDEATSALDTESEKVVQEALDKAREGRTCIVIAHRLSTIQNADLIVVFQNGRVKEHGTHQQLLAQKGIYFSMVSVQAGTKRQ
Experimental: (§6) Test compound permeability was assessed in duplicate.
(§7) Test and control compounds were quantified by LC-MS/MS cassette analysis using a 5-point calibration with appropriate dilution of the samples. Cyprotex generic analytical conditions were used. The starting concentration (C0) was determined from the dosing solution and the experimental recovery calculated from C0 and both apical and basolateral compartment concentrations.
(§8) Lucifer yellow permeation is low if monolayers have not been damaged.
(§9) Where dQ/dt is the rate of permeation of the drug across the cells, C0 is the donor compartment concentration at time zero and A is the area of the cell monolayer.

[4] = Effects on QTc interval in anaesthetised guinea pigs; assay type: in vivo; conditions: anaesthetised guinea pig, i.v. infusion 2.0, 6.0, 20 mg/kg/10 min, up to the highest dose/concentration tested
Experimental: Assessment of Effects on QTc Interval in Guinea Pigs
Male Dunkin-Hartley guinea pigs were weighed and anaesthetised using 4% isoflurane in carbogen. […] Xylazine at 2 mg/kg i.m. was administered into the hind limb as a bradycardic agent to enable detection of QTc prolongation by the software.
The carotid artery and jugular vein were cannulated with lines containing heparinised saline and a 3-lead ECG connected and monitored using LabChart Pro software. Animals were allowed to stabilise for 30 minutes after the completion of the surgical procedure, before the initiation of an i.v. vehicle (5% DMSO/90% MilliQ/5% 0.1N HCl) infusion from time zero (infusion rate=0.2 ml/kg/min). At 10 mins, an arterial blood sample was collected for PK analysis (150u1; all collection syringes were heparinised). At 12 mins, drug infusion was started @ 2.0 mg/kg/10 min i.v. The dose was increased to 6.0 mg/kg/10 min, then 20 mg/kg/10 min i.v., with a 10 minutes infusion period and two minutes blood sampling at each dose. After the final dose, a blood sample was taken and a second vehicle infusion initiated. Eight minutes later a terminal blood sample was collected for plasma PK analysis and the animal killed by a Schedule 1 method.
QTc (Bazett's) changes were analysed using LabChart Pro software.

[5] = system: Aβ peptide production in rat primary neuronal culture; assay: Quantification of Aβ peptide in culture of neurons from rat fetus brain (Aβ ELISA); assay type: cell-based; conditions: Primary cortical neuron, Aβ species (ABx-40 1 day / ABx-42 3 days) not given
[6] = Rat in vivo CNS penetration (plasma, brain and CSF concentrations); conditions: 10 mg/kg p.o.; for Kp at 2 h / Kp at 4 h / Kp at 6 h / Kp at 8 h: male, Sprague Dawley, po, rat
Experimental: Rat In Vivo CNS Penetration
Male Sprague Dawley rats were acquired from Charles River UK Ltd. (Margate, UK) and housed according to UK Home Office guidelines. Drugs were made up to the appropriate concentrations in 0.5% methyl cellulose. Animals were dosed orally (2 mL/kg) by gavage at the doses outlined in Tables 2 to 4 below.
At the time points post-dosing, specified in Tables 2 to 4 below the animals were administered an i.p. injection of sodium pentobarbitone (approximately 330 mg/kg for terminal anaesthesia).
Using a guillotine, the animals were decapitated and trunk blood collected into 15 ml Falcon tubes containing 100 IU heparin. Blood was vortexed followed by centrifugation at 6000 rpm, 4° C. for 5 minutes. Plasma was collected for DMPK and ELISA assays and stored at −80° C. until use. Brains were dissected out and divided along the midline, weighed and stored at −80° C. until further use.
Method for Analysis of Plasma, Brain and CSF Samples
Test compound was prepared as a 1 mg free base/mL solution in DMSO, vortexed and sonicated for 5 min. The 1 mg/mL DMSO solution was diluted to 10 and 30 μg/mL acetonitrile stocks, by adding 10 μL to 990 μL acetonitrile and 30 μL to 970 μL acetonitrile, respectively. The 10 and 30 μg/mL acetonitrile stocks were then serially diluted 1:9 (v/v) (100 μL stock into 900 μL acetonitrile) to give the following solutions: 0.003, 0.01, 0.03, 0.1, 0.3, 1, 3, 10 and 30 μg/mL acetonitrile.
Control male Sprague Dawley rat plasma and the study plasma samples were stored at −80° C. until the day of analysis when they were thawed at room temperature. Control plasma was centrifuged (2,000 g for 10 min) and aliquoted (90 μL) into eppendorf tubes for preparation of standards and blank samples. Study samples were previously aliquoted (100 μL) into eppendorf tubes immediately following collection of the plasma.
Double blank and blank samples were prepared by adding 10 μL of acetonitrile to 90 μL of blank plasma.
Control male Sprague Dawley rat brain and the study brain samples were weighed after collection and stored at −80° C. until the day of analysis when they were thawed at room temperature. Once thawed brains were diluted with water (4 mL per gram of tissue) and homogenised using a mechanical homogeniser. An aliquot (100 μL) of each study sample was taken into Micronics tubes ready for analysis and sufficient aliquots (90 μL) of control brain homogenate prepared for preparation of standards and blanks.
Double blank and blank samples were prepared by adding 10 μL of acetonitrile to 90 μL of blank brain homogenate.
Each plasma and brain homogenate sample, standard and blank (100 μL) was extracted with an aliquot (300 μL) of acetonitrile (containing 0.1% formic acid and 100 ng/mL of an appropriate internal standard). Double blanks were extracted with an aliquot (300 μL) of acetonitrile containing 0.1% formic acid). All samples, standards and blanks were then vortex mixed and centrifuged (2000 g for 15 min). An aliquot (50 μL) of the resulting supernatant was then taken into a 2 mL 96-deep well plate and diluted with acetonitrile:water (50:50 v/v) (150 μL) ready for analysis by a specific LC-MS/MS method.
Control male Sprague Dawley rat CSF and the study CSF samples were stored at −80° C. until the day of analysis when they were thawed at room temperature. An aliquot (50 μL) of each study sample was taken into Micronics tubes ready for analysis and sufficient aliquots (45 μL) of control CSF prepared for preparation of standards and blanks.
Double blank and blank samples were prepared by adding 5 μL of acetonitrile to 45 μL of blank CSF.
Each CSF sample, standard and blank (50 μL) was extracted with an aliquot (150 μL) of acetonitrile (containing 0.1% formic acid and 100 ng/mL of an appropriate internal standard). Double blanks were extracted with an aliquot (150 μL) of acetonitrile containing 0.1% formic acid.

[7] = Effects on QTc interval in anaesthetised beagle dogs; assay type: in vivo; conditions: anaesthetised beagle dog, infusion 1, 3, 10 mg/kg/10 min, up to the highest dose/concentration tested
Experimental: Assessment of Effects on QTc Interval in Beagle Dogs
Male beagle dogs were weighed and injected with sodium thiopental for induction of anesthesia.
The carotid artery and saphenous vein were cannulated with lines containing heparinised saline and a LII ECG connected and monitored using polygraph system. Animals were allowed to stabilise for 30 minutes before the infusion of compound solution and the infusion via cannula was started from time zero with 1 mg/kg/10 min. The dose was increased to 3 mg/kg/10 min, then 10 mg/kg/10 min. An arterial blood sample was collected after every dosing for PK analysis.

[8] = Plasma protein binding (PPB), rapid equilibrium dialysis; assay type: in vitro ADME; conditions: male, Sprague Dawley, rat, RED 6 h 37° C.
Experimental: as §1, §2, §3, §4, §5

[9] = target: T2, P-glycoprotein (MDR1) (Homo sapiens, UniProt P08183); assay: MDR1-MDCK permeability (bi-directional) Pgp efflux assay; assay type: in vitro ADME; conditions: dog, MDCK-MDR1, pH 7.4; read-out: Pgp ER
T2 construct: assay run at Cyprotex Discovery Ltd; host or cells: MDCK (canine kidney epithelial) cells stably transfected with MDR1
T2 sequence (P08183 whole entry): as above
Experimental: as §6, §7, §8, §9

[10] = TASTPM mice, cited from earlier work; for brain concentration: oral dose of 250 mg/kg
[11] = target: BACE-1 (Homo sapiens, UniProt P56817); conditions: cited from earlier work
BACE-1, sequence (P56817 46-501, species assumed): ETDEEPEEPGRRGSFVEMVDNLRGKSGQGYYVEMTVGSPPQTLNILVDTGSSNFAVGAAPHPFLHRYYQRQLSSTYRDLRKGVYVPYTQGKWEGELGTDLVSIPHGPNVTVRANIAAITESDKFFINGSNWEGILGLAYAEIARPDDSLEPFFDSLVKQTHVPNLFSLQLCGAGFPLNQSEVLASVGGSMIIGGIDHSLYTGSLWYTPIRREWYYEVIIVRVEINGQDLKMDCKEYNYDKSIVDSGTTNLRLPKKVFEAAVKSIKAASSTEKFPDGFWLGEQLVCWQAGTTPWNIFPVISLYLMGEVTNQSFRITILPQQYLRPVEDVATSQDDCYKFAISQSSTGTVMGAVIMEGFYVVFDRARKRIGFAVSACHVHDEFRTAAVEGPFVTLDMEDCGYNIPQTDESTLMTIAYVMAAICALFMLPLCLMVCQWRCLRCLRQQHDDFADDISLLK

[12] = system: Aβ40; conditions: TASTPM mice, cited from earlier work
[13] = CSF / plasma (unbound), read-out: CSF:Plu
[14] = brain (total) / plasma (total), read-out: Brtot:Pltot
[15] = brain (unbound) / plasma (unbound), read-out: Bru:Plu

Structure (SMILES): NC1=N[C@@]2(c3cc(N)ccc3F)CO[C@H](C(F)(F)F)[C@H]2CS1 [1-(25), (4aS,5S,7aS)-7a-(5-amino-2-fluorophenyl)-5-(trifluoromethyl)-4a,5,7,7a-tetrahydro-4H-furo[3,4-d][1,3]thiazin-2-amine]
- Ames test result [1]: negative

- fraction unbound at 6 h, 1 μg/mL ([2]; male, Sprague Dawley, pH 7.4, fraction unbound, mean of n = 3, read-out: Rat Brain fu): 0.022
- Rat BTB (%) ([2]; 1 μg/mL, mean of n = 3): 97.8%
- Pgp ER [3]: 1.7
- IC50 [5]: 6 nM
- Kp at 2 h [6, 13]: 0.5
- Kp at 4 h [6, 13]: 0.6
- Kp at 6 h [6, 13]: 0.5
- Kp at 2 h [6, 14]: 3.3
- Kp at 4 h [6, 14]: 3.9
- Kp at 6 h [6, 14]: 3.7
- Kp at 8 h ([6]; brain (total) / plasma (total), 8 h, read-out: Brtot:Pltot): 3.8
- Kp at 2 h [6, 15]: 0.7
- Kp at 4 h [6, 15]: 0.8
- Kp at 6 h [6, 15]: 0.8
- Kp at 8 h ([6]; brain (unbound) / plasma (unbound), 8 h, read-out: Bru:Plu): 0.8
- [CSF] ([6]; rat CSF, 8 h): ^3n.q.
- fraction unbound at 6 h, 1 μg/mL ([8]; pH 7.4, fraction unbound, rat plasma, mean of n = 3, read-out: Rat Plasma fu): 0.104
- fraction unbound at 6 h, 1 μg/mL ([8]; pH 7.4, rat plasma, mean of n = 3, read-out: Rat PPB (%) (converted)): 0.104
Structure (SMILES): NC1=N[C@@]2(c3cc(NC(=O)c4cnc(CF)cn4)ccc3F)CO[C@H](C(F)(F)F)[C@H]2CS1 [Example 8, N-(3-((4aS,5S,7aS)-2-amino-5-(trifluoromethyl)-4a,5,7,7a-tetrahydro-4H-furo[3,4-d][1,3]thiazin-7a-yl)-4-fluorophenyl)-5-(fluoromethyl)pyrazine-2-carboxamide]
- QTc (Bazett's) change [4]: unchanged
- QTc change [7]: unchanged

- efflux ratio at 60 min, 10 μM [9]: 1.7
- IC50 [5]: 44 nM
Structure (SMILES): COCc1cnc(C(=O)Nc2ccc(F)c([C@]34CO[C@H](C(F)(F)F)[C@H]3CSC(N)=N4)c2)cn1 [Example 13, N-(3-((4aS,5S,7aS)-2-amino-5-(trifluoromethyl)-4a,5,7,7a-tetrahydro-4H-furo[3,4-d][1,3]thiazin-7a-yl)-4-fluorophenyl)-5-(methoxymethyl)pyrazine-2-carboxamide]

Structure (SMILES): CCNc1cc(C(=O)N[C@@H](Cc2ccccc2)[C@H](O)CNCc2cccc(C(F)(F)F)c2)c(F)c(N2CCCCS2(=O)=O)c1 [GSK188909]
- increase in CNS penetration by co-administration of a Pgp inhibitor ([10]; 250 mg/kg oral, with vs without GF120918): ~9 fold
- brain concentration ([10]; Pgp inhibitor GF120918 dosed 5 hours before): 5.43 µM
- brain concentration ([10]; no Pgp inhibitor): 0.62 µM
- IC50 [11]: 5 nM
- effect on brain Aβ40 levels ([12]; 250 mg/kg oral dose, absence of a Pgp inhibitor): did not have any effect
- reduction in brain Aβ40 levels relative to vehicle treated mice ([12]; 250 mg/kg oral, Pgp inhibitor co-administered 5 hours prior): 68%
